Laboratory results reported in ChEMBL document CHEMBL1146963, “Synthesis and biological evaluation of alpha-galactosylceramide (KRN7000) and isoglobotrihexosylceramide (iGb3)” (Bioorg Med Chem Lett, 2006).
The source made the active and inactive calls.

Key:
Type in all cases: functional, cell-based
iNKT [1] = experiment: Release of IL4 and IFN-gamma from human iNKT cells stimulated by C1R cell expressing human CD1d at 5 ug/ml
iNKT [2] = experiment: Release of IL4 and IFN-gamma from human iNKT cells stimulated by C1R cell expressing human CD1d at 20 ug/ml
iNKT [3] = experiment: Release of IL2 from mouse iNKT hybridoma stimulated by bone marrow-derived mouse DC at 0.2 ug/ml

Measured: Activity

CCCCCCCCCCCCC/C=C/[C@@H](O)[C@H](CO[C@@H]1O[C@H](CO)[C@@H](O[C@@H]2O[C@H](CO)[C@H](O)[C@H](O[C@H]3O[C@H](CO)[C@H](O)[C@H](O)[C@H]3O)[C@H]2O)[C@H](O)[C@H]1O)NC(=O)CCCCCCCCCCCCCCCCCCCCCCCCC
active: all assays above
